For series [1], the system named is C. elegans. It is filed as in vivo, Caenorhabditis elegans. Conditions: pulse 40 μM ZnMP 3 h. As to the method: (C) Fluorescent metabolic labeling of worms with either 40 μM hemin (images 1, 4) or 40 μM ZnMP/4 μM hemin (images 2, 3, 5, 6) for 3 h followed by confocal microscopy with a 546 laser (images 1-3) and DIC optics (images 4-6). Arrowheads indicate ZnMP fluorescence accumulation within intestinal cells and developing embryos. For clarity, the boxed image in 2 is magnified in images 3 and 6. (Bar=100 μm).
(D) Worms were incubated with 40 μM ZnMP/4 μM hemin for 16 h followed by a chase with 40 μM hemin. Worms were analyzed by epifluorescence microscopy (TRITC channel) and DIC optics. Experiments were performed either in the absence (images 1-4) or presence (images 5-8) of NaN3 during the chase periods to test for the non-specific loss of ZnMP fluorescence. Photomicrograph 4 is shown at a lower power to depict the complete loss of ZnMP fluorescence. (Bar=100 μm). For (C) and (D), four separate experiments were performed with a minimum of 50 worms per data point per experiment. The data are representative for >90% of worms analyzed.
Because of the nature of the growth curve, we reasoned that heme homeostatis in C. elegans may be regulated in accordance with organismic needs and metabolic demands. […]
Pulse-Chase Analysis. […] At timed intervals, aliquots of worms were removed into the appropriate medium containing 10 mM NaN3 mounted on a slide and immediately analyzed with a 543 He/Ne laser on a Zeiss 410 confocal microscope, or with a Peltier-cooled Retiga 1300 12-bit CCD camera fitted on to a Leica DMIRE2 autofluorescence/DIC microscope. Images were further analyzed with SIMPLEPCI v5.2 Software (Compix, Inc.). […] No loss of fluorescence was observed when labeling experiments were performed in parallel in the presence of 1 mM NaN3 during the chase period and when worms were incubated in medium without hemin. To account for background autouluorescence in C. elegans, the sensor gain of the CCD camera or the laser was set to subtract any fluorescence obtained from control worms incubated in the presence of 40 μM hemin.

Series [2] has as its system C. elegans wild-type N2 strain. Briefly: Worm culture and growth assay in axenic CeHR/mCeHR liquid medium. The format is in vivo. Further details: key to Growth 1.6 μM hemin / Growth 0.5 μM GaPP: + = wild type equivalent In growth; ND: No growth. The procedure: (D) Biphasic response of C. elegans cultured in the presence of increasing amounts of hemin chloride (μM). Equal numbers of synchronized L1 larvae were grown in 24-well plates in mCeHR medium for 9 days and quantified (worms/μl) by microscopy. Each data point represents the mean±SD from three separate experiments performed in triplicate.
(A) Aerobic growth of C. elegans in mCeFIR medium with 20 μM hemin supplemented with either gallium protoporphyrin IX (GaPP) or gallium salts. Synchronized L1 larvae were grown for 9 days in 24-well plates and quantified (worms/μl) by microscopy. Each data point represents the mean from a single experiment, and each experiment was performed in triplicate. Inset depicts the GaPP analysis at lower concentrations for clarity.
(B) Effect of heme on the cytotoxicity of GaPP. Synchronized L1 larvae were inoculated in 24-well plates containing mCeHR medium with either 0, 2, 4, or 6 μM GaPP and increasing hemin (μM). The number of worms per μl was measured on day 9 and the data are presented as mean±SD.
FIG. 9 depicts worm utilization of heme-iron under iron deprivation. Equal numbers of synchronized L1 larvae were grown in the presence of 4, 20, and 100 μM hemin, either in basal mCeHR medium (set 1), or basal medium lacking exogenous iron (set 2), or as set 2 with 1 μM of the iron chelator ferrozine (set 3), or as set 3 with 486 μM ferrous ammonium sulfate (set 4). These values of ferrozine and iron were empirically determined by performing dose-response experiments and analyzing worm growth. The number of worms per μl was measured on day 9 and the data presented as mean±SD performed in triplicate. P<0.001 between sets 1 and 3.
To qualitatively and quantitatively determine the heme requirement of C. elegans, we assessed growth at various heme concentrations. Equal numbers of L1 larvae were inoculated in CeHR medium with either no cytochrome c and hemin, or with cytochrome c and increasing amounts of hemin (FIG. 4A). The effect of hemin became apparent within 48 hours and by 9 days, the heme-deplete worms were severely growth retarded at the L1/L2 stages. […] However, this stimulatory effect of heme was toxic to worms grown at heme concentrations >750 μM. To quantitatively assess the effect of heme on worms, we counted the number of live worms grown under different concentration of heme using DIC microscopy. […] On the basis of this association between heme and the growth and reproduction of C. elegans, we conclude that the biphasic nature of heme is likely due to the need for heme under heme-deprived conditions to perform essential metabolic functions, and the lethality of heme at high concentrations can be attributed to its cytotoxic activity.
Worm Culture and Growth Assays. Free-living worms were cultured in CeHR axenic liquid medium (Dr. Eric Clegg, Personal Communication). […] CeHR medium was modified (henceforth called mCeHR) to eliminate all sources of exogenously added heme; basal growth medium comprised 20 μM hemin chloride (Frontier Scientific, Logan, Utah) and 150 μM of ferrous ammonium sulfate (Sigma Chemicals). Worm strains were grown in mCeHR medium under aerobic conditions in tissue culture flasks at 20° C. ˜3.7×10^6 worms were routinely obtained after 3.5 to 4 days in a T75 flask with 30 ml basal medium from an initial inoculum of −1.5×10^5 worms. For initial culturing of worms in axenic media, three generations of worms were sequentially bleached (1.1% bleach/0.55 M NaOH) to eliminate any contaminating bacterial carryover from agar plates. In all dose-response experiments, worms were growth synchronized by treating the gravid hermaphrodite worms with bleach to dissolve adult worms. The eggs, resistant to bleach, were liberated from the carcasses and extensively washed with M9 buffer followed by overnight hatching in M9 buffer to synchronize growth. By harvesting at appropriate time intervals, synchronous larval stages and adult staged worms were collected for experimental manipulations. […]

On to hemin chloride, for which, in series [1], the “hemin concentration of growth medium giving dramatic decline in ZnMP fluorescence” value is at least 100 µM and the “hemin concentration of growth medium giving robust uptake of fluorescent ZnMP” value is at most 20 µM. In addition, in series [2] (4 and 500 μM hemin), the “growth delay compared to worms grown at 20 μM hemin” value was about 24 h. In addition, the “effect on growth under iron deprivation” value in series [2] (20 and 100 μM hemin, with ferrozine, P<0.001) is recorded as “attenuated the growth retarding effects of iron deprivation”. Also, the “heme concentrations toxic to worms” value in series [2] (CeHR medium) is over 750 µM. In series [2] (CeHR medium with cytochrome c, L1 larvae inoculum), the “hemin concentration at which maximum growth was achieved” value worked out at 10 µM. The “Growth 1.6 μM hemin” value in series [2] (Control Wild-type (N2)) is “+”. Besides, the “Generation time (Days) 20 μM” value in series [2] (Control Wild-type (N2), 20 μM hemin) came out at 3.5 days. Also, in series [2] (Control Wild-type (N2), 20 μM hemin, average in 24 well plates), the “brood size 20 μM” value is reported as 62.3. In addition, the “Generation time (Days) 800 μM” value in series [2] (Control Wild-type (N2), 800 μM hemin) is over 16 days. Besides, the “sensitivity to heme in liquid medium versus heme plates” value in series [2] (in vivo) worked out at 10 times. For the same substance, the “hemin amount resulting in growth arrest at the L3 stage” value in series [2] (mCeHR medium) was at least 800 µM. Further, the “optimum concentration of hemin for growth” value in series [2] (mCeHR medium, 9 days) was determined as 20 µM.

The record behind these values is US20060206946A1, “Method of disrupting heme transport in nematodes and of modelling and evaluating eukaryotic heme transport” (priority 2005, published 2006).
